Results reported in PubChem BioAssay (NCI).
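Results reflect a 48-hour exposure of cells in 96-well plates to compound at five concentrations. At the TGI there is no net growth.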

Experiments:
Assay in all cases: NCI-60 cell line screen, 48 h
MDA-MB-231 breast = test system: MDA-MB-231 breast
PC-3 prostate = test system: PC-3 prostate
NCI/ADR-RES ovarian = test system: NCI/ADR-RES ovarian
SK-OV-3 ovarian = test system: SK-OV-3 ovarian
RPMI-8226 leukemia = test system: RPMI-8226 leukemia
NCI-H226 lung = test system: NCI-H226 lung
OVCAR-8 ovarian = test system: OVCAR-8 ovarian
TK-10 renal = test system: TK-10 renal
DU-145 prostate = test system: DU-145 prostate
OVCAR-5 ovarian = test system: OVCAR-5 ovarian
OVCAR-4 ovarian = test system: OVCAR-4 ovarian
U251 CNS = test system: U251 CNS
MOLT-4 leukemia = test system: MOLT-4 leukemia
HCT-116 colon = test system: HCT-116 colon
T-47D breast = test system: T-47D breast
UACC-62 melanoma = test system: UACC-62 melanoma
HL-60(TB) leukemia = test system: HL-60(TB) leukemia
HCC-2998 colon = test system: HCC-2998 colon
MALME-3M melanoma = test system: MALME-3M melanoma
SR leukemia = test system: SR leukemia

SMILES | TGI (MDA-MB-231 breast) [µM] | TGI (PC-3 prostate) [µM] | TGI (NCI/ADR-RES ovarian) [µM] | TGI (SK-OV-3 ovarian) [µM] | TGI (RPMI-8226 leukemia) [µM] | TGI (NCI-H226 lung) [µM] | TGI (OVCAR-8 ovarian) [µM] | TGI (TK-10 renal) [µM] | TGI (DU-145 prostate) [µM] | TGI (OVCAR-5 ovarian) [µM] | TGI (OVCAR-4 ovarian) [µM] | TGI (U251 CNS) [µM] | TGI (MOLT-4 leukemia) [µM] | TGI (HCT-116 colon) [µM] | TGI (T-47D breast) [µM] | TGI (UACC-62 melanoma) [µM] | TGI (HL-60(TB) leukemia) [µM] | TGI (HCC-2998 colon) [µM] | TGI (MALME-3M melanoma) [µM] | TGI (SR leukemia) [µM]
N#Cc1c(Cl)cccc1Oc1ccc(S(=O)(=O)/N=C(\NN)Nc2ccc(Cl)cc2)cc1 | 67.2 | 80.8 | > 100 | > 100 | 59.3 | 60.9 | > 100 | 79.6 | 86.9 | 94.5 | 71 | > 100 | 34.4 | 37.8 | 48.1 | 38.8 | 47.7 |  |  | 
Cn1nc2ccc3nccc(N4CCN(CCO)CC4)c3c2n1 | > 100 | > 100 |  | > 100 |  | > 100 | > 100 | > 100 | > 100 | > 100 | > 100 | > 100 | > 100 | > 100 | > 100 | > 100 |  | > 100 | > 100 | 
CC(=O)N1OC(C)CC1Nc1ccc(Br)cc1 (centres undefined) |  | > 100 | > 100 | > 100 |  | > 100 | > 100 | > 100 | > 100 | > 100 |  | > 100 | > 100 | > 100 | > 100 | > 100 | > 100 | 22.4 | > 100 | > 100
Cc1ccc(NN=NCCCCN)cc1 | > 100 |  | > 100 | > 100 | > 100 | > 100 | > 100 | > 100 | > 100 | > 100 | > 100 |  | > 100 | > 100 | > 100 | > 100 | > 100 | > 100 | > 100 | > 100
O=C(NC(CS)C(=O)O)c1cccc2c(=O)c3ccccc3[nH]c12 (centres undefined) | > 100 | > 100 | > 100 | > 100 | > 100 | > 100 | > 100 | > 100 | > 100 | > 100 | > 100 | > 100 | > 100 | > 100 |  | > 100 | > 100 |  | > 100 | > 100
CCCCc1c2c(nc3c1CCCC3O)CCCC2 (centres undefined) | > 100 | > 100 | > 100 | > 100 | > 100 | > 100 | > 100 | > 100 | > 100 | > 100 | > 100 | > 100 | > 100 | > 100 |  | > 100 | > 100 | > 100 | > 100 | > 100
c1ccc(N=C(Nc2ccccc2)N2CCCCC2)cc1 |  | > 100 | > 100 | > 100 | > 100 | > 100 | > 100 | > 100 |  | > 100 | > 100 | > 100 | > 100 | > 100 | > 100 | > 100 | > 100 |  | > 100 | > 100
Cc1nc(Nc2ccccc2Cl)sc1C(=O)CC(=O)C(=O)Nc1c(Cl)cccc1Cl | 42.9 | > 100 | 54.1 | > 100 | > 100 | 49.7 | 96.7 | > 100 | > 100 | > 100 | > 100 | 64.3 | 67.9 | 52 | 71.6 | > 100 | 33.6 | > 100 |  | 68.6
COC(=O)c1ccccc1C1CN=NC12Cc1ccc(C)c(C)c1C2=O (centres undefined) | > 100 | > 100 | > 100 | > 100 |  | > 100 | > 100 | > 100 | > 100 | > 100 | > 100 | > 100 | > 100 | > 100 | > 100 | > 100 | 69.7 | > 100 | > 100 | 
CC(=O)O[C@H]1C(=O)[C@@]2(C)[C@H]([C@H](OC(=O)c3cccc(C(F)(F)F)c3)[C@]3(O)C[C@H](OC(=O)[C@H](O)[C@@H](NC(=O)c4ccccc4)c4ccccc4)C(C)=C1C3(C)C)[C@]1(OC(C)=O)CO[C@@H]1C[C@@H]2O | > 13.1 |  | > 7.02 | > 25 | 0.0862 | 11.6 | 7.61 | 8.88 |  | > 10.7 | > 18.4 | 0.0196 | 3.57 | 3.21 | > 25 | 8 | < 0.0025 |  | 10.5 | 3.72
NNC(=O)c1ccccc1NC(=O)/C(=C/c1ccccc1O)NC(=O)c1ccccc1 | > 100 |  | 50.8 | > 100 | > 100 | > 100 | 37.7 | > 100 | > 100 | > 100 | > 100 | > 100 | > 100 | > 100 | > 100 | > 100 | > 100 | > 100 | > 100 | > 100
Cc1ccc2ccccc2c1NC1=NCCO1 | > 100 |  | > 100 | > 100 | > 100 | 74.5 | > 100 | > 100 | > 100 | > 100 | > 100 | > 100 | > 100 | > 100 | > 100 | > 100 | > 100 | > 100 | > 100 | > 100
O=C1C=C(Sc2ccccc2)c2nccc3c2c1nc1ccccc13 | 38 | 26.2 | > 100 | > 100 | > 100 | > 100 | 37.6 | > 100 | > 100 | > 100 | 31.4 | 33.6 | 23.5 | 30.3 |  | 29.2 | 4.29 | 37.8 | 30 | 25.5
COc1ccc(C2CC(c3ccccc3)=Nc3c(-c4ccccc4)nnn32)cc1 (centres undefined) | > 100 | > 100 | > 100 | > 100 | 82.6 | > 100 | > 100 |  | > 100 | > 100 |  | > 100 | > 100 | > 100 | 59.6 | > 100 | > 100 |  |  | > 100
O=C(CC(C(=O)c1ccco1)c1ccsc1)c1ccco1 (centres undefined) | > 100 |  | > 100 | > 100 | > 100 | > 100 | > 100 | > 100 | > 100 | > 100 | > 100 | > 100 | > 100 | > 100 | > 100 | > 100 | > 100 | > 100 |  | > 100
COc1cc(NC(C)=O)ccc1C(=O)N/N=C/c1ccc(Cl)cc1Cl |  | > 100 | > 100 | > 100 | > 100 | > 100 | > 100 |  | > 100 | > 100 | 85.5 |  | > 100 | > 100 | 70.8 | > 100 | > 100 | > 100 | > 100 | > 100
N=C(N)N1CCC(N2CCOCC2)CC1 | > 100 |  | > 100 | > 100 | > 100 | > 100 | > 100 | > 100 | > 100 | > 100 | > 100 | > 100 | > 100 | > 100 | > 100 | > 100 | > 100 | > 100 | > 100 | > 100
c1cc(Sc2nc(Sc3ccncc3)nc(Sc3ccncc3)n2)ccn1 | > 100 | > 100 | > 100 | > 100 | > 100 | > 100 | > 100 | > 100 | > 100 | > 100 | > 100 | > 100 | > 100 | > 100 | > 100 | > 100 | > 100 | > 100 | > 100 | 
O=C(O)CN1CCN2CCOCCOCCN(CC1)CCN(CC(=O)O)CC2 | > 100 | > 100 | > 100 | > 100 | > 100 | > 100 | > 100 | > 100 | > 100 | > 100 | > 100 | > 100 |  | > 100 | > 100 | > 100 |  |  | > 100 | > 100
CC(C)=NN/C(=N\S(=O)(=O)c1ccc(C)cc1)Nc1ccc(Cl)cc1 | > 100 | > 100 | > 100 |  | > 100 | > 100 | > 100 | > 100 | > 100 | > 100 | > 100 | > 100 | > 100 | > 100 | > 100 | > 100 | > 100 |  | > 100 | 
CC(C)(C)c1cc(C(C)(C)C)c(SS(=O)(=O)O)c(O)c1O | > 100 | > 100 | > 100 | > 100 | > 100 | > 100 | > 100 | > 100 | > 100 | > 100 | > 100 | > 100 | 0.219 | > 100 | > 100 | 55.2 | > 100 |  | > 100 | 
CC(=O)Nc1ccc(NC(=O)c2c(Cl)c(Cl)c(Cl)c(Cl)c2-c2nc3ccccc3[nH]2)cc1 |  | > 100 |  | > 100 | 71 | > 100 | > 100 |  | > 100 | > 100 | > 100 |  | 98.7 | > 100 | > 100 | > 100 | 67.6 | > 100 | > 100 | > 100
O=C1C(N2CCNCC2)=C(Cl)C(=O)c2ncccc21 | > 10 | > 10 |  | > 10 | > 10 | > 10 | > 10 | > 10 | > 10 | > 10 | > 10 | > 10 | > 10 | 4.36 | > 10 | > 10 |  | > 10 | > 10 | > 10
Cc1nc2ccc(S(=O)(=O)Nc3ccccc3)cc2c(=O)n1NC(=O)CNc1ccccc1 | > 100 | > 100 | > 100 | > 100 | > 100 | > 100 | > 100 | > 100 | > 100 | > 100 | > 100 | > 100 | > 100 | > 100 |  | > 100 | > 100 | > 100 | > 100 | > 100
O=C1SS(=O)c2ccccc21 (centres undefined) | > 100 | > 100 | > 100 | > 100 | > 100 | > 100 | > 100 |  | > 100 | > 100 | > 100 | > 100 | > 100 | > 100 |  | > 100 | > 100 | > 100 | > 100 | > 100
CC(=O)NC(C)(C)C1CC=C(C)CC1 (centres undefined) | > 100 | > 100 | > 100 | > 100 | > 100 | > 100 | > 100 | > 100 | > 100 | > 100 | > 100 | > 100 | > 100 | > 100 |  | > 100 | > 100 | > 100 | > 100 | > 100
